Legend:
hNav1.4 [1] = molecular target: T1, hNav1.4 (Homo sapiens, UniProt P35499); experiment: whole-cell patch clamp, peak INa; type: cell-based; conditions: read-out: 0.1 Hz / IC50
T1 construct: gene SCN4A
Text: (§1) whole-cell patch clamp, peak INa on hNav1.4

hNav1.4 [2] = molecular target: T2, hNav1.4 (Homo sapiens, UniProt P35499, F1586C); experiment: whole-cell patch clamp, peak INa; type: cell-based; conditions: read-out: 0.1 Hz / IC50
T2 construct: gene SCN4A
Text: as §1

T1 sequence (P35499 whole entry): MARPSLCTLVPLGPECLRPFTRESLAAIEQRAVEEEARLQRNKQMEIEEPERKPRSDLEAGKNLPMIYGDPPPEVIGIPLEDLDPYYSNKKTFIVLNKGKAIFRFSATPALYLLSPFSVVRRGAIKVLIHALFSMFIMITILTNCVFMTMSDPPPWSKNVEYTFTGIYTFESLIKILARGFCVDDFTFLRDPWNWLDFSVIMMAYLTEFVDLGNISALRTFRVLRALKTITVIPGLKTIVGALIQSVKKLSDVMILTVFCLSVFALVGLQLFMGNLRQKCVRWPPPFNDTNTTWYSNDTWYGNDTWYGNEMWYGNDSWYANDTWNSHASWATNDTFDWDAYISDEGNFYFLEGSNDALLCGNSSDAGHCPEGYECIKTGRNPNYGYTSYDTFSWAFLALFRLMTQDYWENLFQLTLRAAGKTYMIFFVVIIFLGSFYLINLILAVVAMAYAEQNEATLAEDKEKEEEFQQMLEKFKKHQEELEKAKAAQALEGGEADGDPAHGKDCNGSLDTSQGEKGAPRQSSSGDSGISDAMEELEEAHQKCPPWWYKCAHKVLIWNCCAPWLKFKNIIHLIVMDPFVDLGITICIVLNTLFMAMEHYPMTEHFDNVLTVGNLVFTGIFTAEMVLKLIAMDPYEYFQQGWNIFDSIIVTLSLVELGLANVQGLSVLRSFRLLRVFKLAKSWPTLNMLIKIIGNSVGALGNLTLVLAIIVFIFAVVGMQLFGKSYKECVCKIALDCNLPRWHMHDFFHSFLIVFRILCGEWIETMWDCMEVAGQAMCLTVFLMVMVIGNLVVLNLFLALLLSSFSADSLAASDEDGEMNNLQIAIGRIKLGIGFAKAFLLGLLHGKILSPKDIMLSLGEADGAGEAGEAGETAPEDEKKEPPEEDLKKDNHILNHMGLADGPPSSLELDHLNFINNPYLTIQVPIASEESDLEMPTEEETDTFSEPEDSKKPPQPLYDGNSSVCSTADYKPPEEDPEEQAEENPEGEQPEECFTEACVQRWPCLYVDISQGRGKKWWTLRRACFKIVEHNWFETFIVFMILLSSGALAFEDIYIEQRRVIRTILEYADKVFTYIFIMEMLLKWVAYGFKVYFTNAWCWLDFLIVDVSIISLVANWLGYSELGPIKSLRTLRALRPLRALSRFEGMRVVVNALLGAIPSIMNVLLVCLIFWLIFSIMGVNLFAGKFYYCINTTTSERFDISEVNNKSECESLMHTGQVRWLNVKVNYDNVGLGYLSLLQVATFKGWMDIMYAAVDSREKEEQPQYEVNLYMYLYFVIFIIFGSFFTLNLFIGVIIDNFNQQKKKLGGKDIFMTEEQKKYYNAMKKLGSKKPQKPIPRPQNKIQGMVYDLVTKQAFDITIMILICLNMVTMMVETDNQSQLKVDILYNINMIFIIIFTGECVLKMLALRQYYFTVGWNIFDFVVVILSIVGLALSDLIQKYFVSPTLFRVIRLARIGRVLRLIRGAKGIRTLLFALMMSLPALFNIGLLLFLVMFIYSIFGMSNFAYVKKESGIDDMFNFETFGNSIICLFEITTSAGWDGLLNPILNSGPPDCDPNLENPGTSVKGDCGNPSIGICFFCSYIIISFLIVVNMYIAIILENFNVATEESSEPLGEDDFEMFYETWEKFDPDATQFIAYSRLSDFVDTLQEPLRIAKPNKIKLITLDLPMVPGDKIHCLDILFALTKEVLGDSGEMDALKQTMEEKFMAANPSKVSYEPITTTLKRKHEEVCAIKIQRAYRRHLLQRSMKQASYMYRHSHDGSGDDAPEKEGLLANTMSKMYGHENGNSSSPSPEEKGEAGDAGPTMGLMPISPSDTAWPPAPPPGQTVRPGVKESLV
T2 sequence (P35499 whole entry F1586C): as the sequence (P35499 whole entry) above, with F1586C counted along it

CNC[C@H](C)Oc1cccc2ccccc12 [(S)-22b]
IC50 (hNav1.4 [1]): 51 ± 2 µM
IC50 (hNav1.4 [2]): 215 ± 5 µM
